Patent US10287251B2, “Pyrazole derivative or pharmaceutically acceptable salt thereof” (KISSEI PHARMACEUTICAL CO., LTD., priority 2015, dated 2019)

target: T1, TRPM8 (Rattus norvegicus, UniProt Q8R455); assay: Confirmation test of inhibitory effects on icilin-induced wet-dog shakes; format: in vivo; conditions: female SD rats, oral dose 1 mg/kg, icilin 1 mg/kg i.p. 1 hour after dosing, shakes counted for 5 minutes
T1 construct: from tissue; host or cells: whole animal, female SD rats (in vivo)
Excerpt: Further, TRPM8 inhibitory activity can be evaluated by the efficacy inhibiting the wet-dog shake action which is induced by the administration of Icilin, TRPM8 agonist. Furthermore, an effect on overactive bladder (OAB) can be evaluated by an elongation of micturition interval against overactive bladder induced by acetic acid in accordance with a similar method described in J. Urol., 2001, 166, 1142.
Confirmation Test of Inhibitory Effects on Icilin-induced Wet-dog Shakes
Test compounds were dissolved in dimethylacetamide (wako), and 0.5% methylcellulose solution (wako) was added to make the solution or suspension containing 5% of dimethylacetatnide. At a dose of 0.3 to 10 mg/kg/5mL of test compounds were orally administered to female SD rats. After 1 hour, wet-dog shakes were induced by the intraperitoneal injection of icilin (1 mg/kg) which was dissolved in polyethylene glycol 400 (wako). From 5 minutes after the administration of icilin, wet-dog shakes were counted for 5 minutes. For control example, vehicle (a mixture of dimethylacetamide (wako): 0.5% methylcellulose (wako)=5:95) was administrated similarly, and the number of wet-dog shakes was counted in the same manner. A percent inhibition of wet-dog shakes by test compound was calculated from the following formula: [1-(test compound wet-dog shake count/vehicle wet-dog shake count)]×100.

T1 sequence (Q8R455 whole entry): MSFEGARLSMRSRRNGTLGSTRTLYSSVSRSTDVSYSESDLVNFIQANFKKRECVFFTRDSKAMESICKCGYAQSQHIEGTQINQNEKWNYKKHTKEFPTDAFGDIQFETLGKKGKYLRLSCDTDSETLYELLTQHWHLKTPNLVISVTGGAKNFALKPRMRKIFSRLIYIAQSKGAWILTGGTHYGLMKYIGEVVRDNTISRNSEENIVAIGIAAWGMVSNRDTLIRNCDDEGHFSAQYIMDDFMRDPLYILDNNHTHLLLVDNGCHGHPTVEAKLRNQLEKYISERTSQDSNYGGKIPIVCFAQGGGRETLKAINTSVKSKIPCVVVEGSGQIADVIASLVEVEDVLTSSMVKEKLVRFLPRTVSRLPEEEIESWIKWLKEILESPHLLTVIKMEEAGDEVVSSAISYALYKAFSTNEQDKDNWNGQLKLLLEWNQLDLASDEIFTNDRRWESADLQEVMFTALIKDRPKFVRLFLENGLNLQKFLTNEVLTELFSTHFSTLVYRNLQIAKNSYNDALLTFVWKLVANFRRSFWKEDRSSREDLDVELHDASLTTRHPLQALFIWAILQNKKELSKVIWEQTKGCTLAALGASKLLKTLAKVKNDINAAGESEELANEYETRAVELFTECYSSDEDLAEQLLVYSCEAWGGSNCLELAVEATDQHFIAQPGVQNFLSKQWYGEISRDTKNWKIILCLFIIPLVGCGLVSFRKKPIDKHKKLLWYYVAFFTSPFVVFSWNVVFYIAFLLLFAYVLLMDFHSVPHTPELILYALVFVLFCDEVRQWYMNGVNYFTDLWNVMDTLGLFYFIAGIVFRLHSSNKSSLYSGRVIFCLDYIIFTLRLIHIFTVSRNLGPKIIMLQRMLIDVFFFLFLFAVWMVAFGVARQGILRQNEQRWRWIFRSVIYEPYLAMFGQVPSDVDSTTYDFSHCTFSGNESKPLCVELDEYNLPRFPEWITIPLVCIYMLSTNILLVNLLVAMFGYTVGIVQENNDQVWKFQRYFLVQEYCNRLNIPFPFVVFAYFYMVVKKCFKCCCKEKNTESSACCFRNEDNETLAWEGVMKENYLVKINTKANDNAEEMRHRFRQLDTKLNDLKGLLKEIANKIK

Compound | % inhibition of Wet-Dog Shake
O=C(N[C@@H]([C@H](O)CO)C(F)(F)c1ccccn1)c1cccc(F)c1-c1cc(-c2ccc(F)cc2)[nH]n1 [Example 1-229] | 56%
O=C(N[C@@H](CO)C(F)(F)c1ccccn1)c1cccc(F)c1-c1cc(-c2ccc(F)cc2)[nH]n1 [Example 1-230] | 59%
CO[C@H](CO)[C@@H](Cc1ncccn1)NC(=O)c1cccc(F)c1-c1cc(-c2ccc(Cl)cc2)[nH]n1 [Example 1-242] | 73%
O=C(N[C@H](Cn1cccn1)[C@H](O)CF)c1cccc(F)c1-c1cc(-c2ccc(F)cc2)[nH]n1 [Example 1-245] | 55%
COC[C@@H](O)[C@@H](Cc1ccccn1)NC(=O)c1cccc(F)c1-c1cc(-c2ccc(F)cc2)[nH]n1 [Example 27-4] | 72%
CO[C@H](CO)[C@@H](Cc1ncccn1)NC(=O)c1cccc(F)c1-c1n[nH]c(-c2ccc(F)cc2)c1F [Example 27-18] | 86%
CO[C@H](CO)[C@@H](Cc1nccs1)NC(=O)c1cccc(F)c1-c1cc(-c2ccc(F)cc2)[nH]n1 [Example 27-19] | 80%

same assay, conditions: female SD rats, oral dose 3 mg/kg, icilin 1 mg/kg i.p. 1 hour after dosing, shakes counted for 5 minutes

Compound | % inhibition of Wet-Dog Shake
O=C(N[C@H](Cn1cccn1)[C@H](O)CO)c1cccc(F)c1-c1cc(-c2ccc(F)cc2)[nH]n1 [Example 1-226] | 53%
C[C@@](O)(CO)[C@@H](Cc1ccccn1)NC(=O)c1ccccc1-c1cc(-c2ccc(F)cc2)[nH]n1 [Example 1-228] | 97%
O=C(N[C@@H](CO)C(F)c1ccccn1)c1cccc(F)c1-c1cc(-c2ccc(F)cc2)[nH]n1 (stereo partly shown) [Example 1-231] | 88%
CC(O)(c1ccccn1)[C@H](CO)NC(=O)c1cccc(F)c1-c1cc(-c2ccc(F)cc2)[nH]n1 (stereo partly shown) [Example 1-241] | 100%
C[C@@](Cc1ccccc1)(NC(=O)c1cccc(F)c1-c1cc(-c2ccc(F)cc2)[nH]n1)C(N)=O [Example 24-1, (2S)-2-{3-Fluoro-2-[5-(4-fluorophenyl)-1H-pyrazol-3-yl]benzoylamino}-2-methyl-3-phenylpropanamide] | 71%
C[C@@](Cc1ccccc1)(NC(=O)c1ccccc1-c1cc(-c2ccc(F)cc2)[nH]n1)C(N)=O [Example 24-3] | 46%
C[C@](CCO)(Cc1ccccn1)NC(=O)c1cccc(F)c1-c1cc(-c2ccc(F)cc2)[nH]n1 [Example 24-4] | 31%
C[C@@](Cc1ccccn1)(NC(=O)c1cccc(F)c1-c1cc(-c2ccc(F)cc2)[nH]n1)C(N)=O [Example 24-7] | 56%
O=C(NC(CCO)Cc1ccccn1)c1cccc(F)c1-c1cc(-c2ccc(F)cc2)[nH]n1 (stereo not shown) [Example 26-1, 3-Fluoro-2-[5-(4-fluorophenyl)-1H-pyrazol-3-yl]-N-[4-hydroxy-1-(pyridin-2-yl)butan-2-yl]benzamide] | 89%
O=C(NC(CCO)Cc1ccccn1)c1ccccc1-c1cc(-c2ccc(F)cc2)[nH]n1 (stereo not shown) [Example 26-2] | 69%
COC[C@@H](O)[C@@H](Cc1ccccn1)NC(=O)c1cccc(Cl)c1-c1cc(-c2ccc(F)cc2)[nH]n1 [Example 27-5] | 52%
CO[C@H](CO)[C@@H](Cc1ncccc1C#N)NC(=O)c1cccc(F)c1-c1cc(-c2ccc(F)cc2)[nH]n1 [Example 27-16] | 56%
CO[C@@H](CO)[C@@H](Cn1cccn1)NC(=O)c1cccc(F)c1-c1cc(-c2ccc(F)cc2)[nH]n1 [Example 27-17] | 86%

same assay, conditions: female SD rats, oral dose 10 mg/kg, icilin 1 mg/kg i.p. 1 hour after dosing, shakes counted for 5 minutes

Compound | % inhibition of Wet-Dog Shake
O=C(NCCc1ccccn1)c1cccc(OC(F)(F)F)c1-c1cc(-c2ccccc2)[nH]n1 [Example 4-1, 2-(5-Phenyl-1H-pyrazol-3-yl)-N-[2-(pyridin-2-yl)ethyl]-3-trifluoromethoxybenzamide] | 70%
NC[C@@H](Cc1ccccn1)NC(=O)c1ccccc1-c1cc(-c2ccc(F)c(F)c2)[nH]n1 [Example 16-11] | 51%
